# Assays:
# [1] = polymer PVP K-12; cited from earlier work
# [2] = Annealing/DSC method for solubility of a crystalline substance in a polymer; assay type: physicochemical; settings: 40 and 50% w/w IMC in PVP/VA, annealing vs scanning method
# Method: Solute-polymer mixtures of desired concentrations were prepared by weighing the components. […] In a typical procedure, 0.5-1 g solute/polymer powder was milled at 10 Hz. Each cycle of milling was 2 min, followed by a 2 min cool-down. The cycle was repeated to achieve a desired milling time (2-60 min).
# For annealing, 5-10 mg of sample was packed into a Tzero hermetic aluminum pan with three pin holes made in the lid to allow the escape of moisture and held isothermally at a desired temperature for as long as 600 minutes. Shorter annealing time was used if the system could apparently achieve equilibrium sooner.
# Differential scanning calorimetry (DSC) was conducted using a TA Instruments DSC Q2000 at 10° C./min to determine whether residual crystals remain after annealing, i.e. whether a dissolution endotherm can be identified.
# [3] = Flory-Huggins fit of solute activity from annealing-method solubility data (interaction parameter χ); assay type: physicochemical; settings: polymer PVP K-12, Flory-Huggins fit
# Method: The solute activity a1 of the drug in the saturated solution was calculated from the solubility of the crystalline drug in the polymer as follows:
# In a1=(ΔHm/R)(1/Tm−1/T) (1)
# where Tm is the melting point of the pure drug, ΔHm is its molar heat of melting, and T is the temperature at which the drug's solubility is measured (or its depressed melting point). […] According to the Flory-Huggins theory, the solute activity is given by
# where v1 and v2 are the solute (drug) and solvent (polymer) volume fractions (v1+v2=1), x is the molar volume ratio of the polymer and the drug, and χ□ is the solute-solvent interaction parameter.
# To the extent the reasonable fitting in FIG. 4 justifies the use of the Flory-Huggins model, the interaction parameter χ (equation 1) could be obtained.
smiles,measurement,setting,value
"COc1ccc2c(c1)c(CC(=O)O)c(C)n2C(=O)c1ccc(Cl)cc1 [IMC, indomethacin]",solute-solvent interaction parameter χ as determined by Marsac et al.,[1],−0.82
same,solution temperature below that obtained with the scanning method,[2],approximately 7 °C
same,solute-solvent interaction parameter χ as determined with the method of the present invention,[3],−8.2 ± 0.6

# — patent publication US20130199313A1, “METHOD FOR EVALUATING THE SOLUBILITY OF A CRYSTALLINE SUBSTANCE IN A POLYMER” (Abbott GmbH & Co, KGW, priority 2010, published 2013)
